Test results published in US10202344B2, “Aryl substituted indoles and the use thereof” (Purdue Pharma L.P., priority 2010, dated 2019).

biological target: human Nav1.7 (Homo sapiens (Human), UniProt Q15858); assay: FLIPR or FLIPR TETRA sodium dye assay with KCl and test article pre-incubation; assay type: cell-based; details: read-out: FLIPR Nav1.7 IC50 (μM) ± SEM
Sequence (Q15858 other isoform, or with tags, fused parts or gaps): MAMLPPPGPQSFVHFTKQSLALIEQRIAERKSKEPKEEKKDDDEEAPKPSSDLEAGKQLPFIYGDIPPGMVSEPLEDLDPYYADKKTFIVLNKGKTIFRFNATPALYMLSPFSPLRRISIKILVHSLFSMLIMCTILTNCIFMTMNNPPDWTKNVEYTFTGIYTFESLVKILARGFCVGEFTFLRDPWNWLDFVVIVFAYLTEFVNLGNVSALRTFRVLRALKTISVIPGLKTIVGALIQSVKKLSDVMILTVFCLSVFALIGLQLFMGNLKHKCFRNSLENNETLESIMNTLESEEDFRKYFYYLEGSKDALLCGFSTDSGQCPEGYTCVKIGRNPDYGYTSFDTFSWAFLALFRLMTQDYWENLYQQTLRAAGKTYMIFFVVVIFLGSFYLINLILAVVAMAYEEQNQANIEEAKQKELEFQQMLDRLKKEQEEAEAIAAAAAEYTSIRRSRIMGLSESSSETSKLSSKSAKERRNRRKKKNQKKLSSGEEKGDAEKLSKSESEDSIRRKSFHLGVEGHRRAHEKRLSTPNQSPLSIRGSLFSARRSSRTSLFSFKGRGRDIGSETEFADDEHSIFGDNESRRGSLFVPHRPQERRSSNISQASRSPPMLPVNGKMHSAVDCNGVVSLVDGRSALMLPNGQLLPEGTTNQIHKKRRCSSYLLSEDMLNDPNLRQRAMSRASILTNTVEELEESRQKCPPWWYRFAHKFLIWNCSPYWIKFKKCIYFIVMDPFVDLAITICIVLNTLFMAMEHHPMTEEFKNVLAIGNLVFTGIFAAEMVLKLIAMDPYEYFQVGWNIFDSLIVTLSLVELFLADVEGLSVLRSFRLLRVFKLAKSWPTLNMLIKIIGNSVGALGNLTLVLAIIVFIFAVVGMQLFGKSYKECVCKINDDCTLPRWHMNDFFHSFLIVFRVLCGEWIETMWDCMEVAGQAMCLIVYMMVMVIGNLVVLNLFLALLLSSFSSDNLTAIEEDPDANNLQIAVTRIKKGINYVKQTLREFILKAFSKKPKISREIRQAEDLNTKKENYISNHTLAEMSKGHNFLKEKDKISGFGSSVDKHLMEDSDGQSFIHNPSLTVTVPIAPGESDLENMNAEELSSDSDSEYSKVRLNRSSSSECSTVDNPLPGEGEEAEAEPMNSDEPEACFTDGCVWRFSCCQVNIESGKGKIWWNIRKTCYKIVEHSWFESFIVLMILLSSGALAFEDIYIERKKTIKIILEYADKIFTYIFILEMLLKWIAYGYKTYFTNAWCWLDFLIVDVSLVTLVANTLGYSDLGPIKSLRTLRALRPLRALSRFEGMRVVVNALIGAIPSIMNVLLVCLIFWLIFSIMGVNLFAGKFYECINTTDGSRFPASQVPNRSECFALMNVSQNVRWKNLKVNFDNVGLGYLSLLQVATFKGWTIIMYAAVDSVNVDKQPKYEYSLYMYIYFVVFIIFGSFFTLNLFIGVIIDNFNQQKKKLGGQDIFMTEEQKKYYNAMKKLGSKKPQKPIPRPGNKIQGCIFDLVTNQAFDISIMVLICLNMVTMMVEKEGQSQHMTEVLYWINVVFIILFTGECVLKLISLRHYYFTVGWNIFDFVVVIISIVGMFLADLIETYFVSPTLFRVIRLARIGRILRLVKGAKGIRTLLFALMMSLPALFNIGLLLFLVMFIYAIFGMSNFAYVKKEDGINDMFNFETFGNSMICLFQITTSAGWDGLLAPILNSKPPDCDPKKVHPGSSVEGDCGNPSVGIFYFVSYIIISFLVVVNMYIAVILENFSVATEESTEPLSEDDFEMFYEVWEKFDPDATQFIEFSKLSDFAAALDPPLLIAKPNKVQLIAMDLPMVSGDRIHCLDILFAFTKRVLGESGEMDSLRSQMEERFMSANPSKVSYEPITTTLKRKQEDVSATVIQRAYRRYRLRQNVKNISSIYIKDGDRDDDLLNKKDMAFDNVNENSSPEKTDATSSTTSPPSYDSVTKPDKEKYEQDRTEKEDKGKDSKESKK

Compound | IC50 [µM]
N#Cc1cc(Oc2ccc(-n3cc(C(=O)C(N)=O)c4ccccc43)cc2)ccc1C(F)(F)F [Compound 59, 2-(1-(4-(3-Cyano-4-(trifluoromethyl)phenoxy)phenyl)-1H-indol-3-yl)-2-oxoacetamide] | 3.54 ± 0.459
O=C(NCCO)c1nn(-c2ccc(Oc3ccccc3)cc2)c2ccccc12 [Compound 144, N-(2-hydroxyethyl)-1-(4-phenoxyphenyl)-1H-indazole-3-carboxamide] | 0.16 ± 0.049

same assay, conditions: recombinant human Nav1.7 in HEK293 cells; sodium dye assay with KCl; read-out: FLIPR Nav1.7 IC50 (μM) ± SEM

Compound | IC50 [µM]
CCOC(=O)C(Cc1c[nH]c2ccc(-c3ccc(Oc4ccccc4)cc3)cc12)[N+](=O)[O-] (centres unmarked) [Compound 6, 2-Nitro-3-[5-(4-phenoxyphenyl)-1H-indol-3-yl]propionic acid ethyl ester] | 5.14 ± 0.954
NCCc1cn(-c2ccc(Oc3ccccc3)cc2)c2ccccc12 [Compound 43, 2-(1-(4-Phenoxyphenyl)-1H-indol-3-yl)ethanamine] | 0.684 ± 0.041
CN(C)CCc1cn(-c2ccc(Oc3ccccc3)cc2)c2ccc(C[C@H]3COC(=O)N3)cc12 [Compound 45, (S)-4-{[3-(2-(Dimethylamino)ethyl)-1-(4-phenoxyphenyl)-1H-indol-5-yl]methyl}oxazolidin-2-one] | 1.9 ± 0.636
N#Cc1cc(Oc2ccc(-n3cc(C[C@H]4COC(=O)N4)c4ccccc43)cc2)ccc1C(F)(F)F [Compound 46, (S)-5-{4-[3-((2-Oxooxazolidin-4-yl)methyl)-1H-indol-1-yl]phenoxy}-2-(trifluoromethyl)benzonitrile] | 0.715 ± 0.126
N#Cc1cccc(Oc2ccc(-n3cc(C[C@H](N)CO)c4ccccc43)cc2)c1 [Compound 57, (S)-5-{4-[3-(2-Amino-3-hydroxypropyl)-1H-indol-1-yl]phenoxy}benzonitrile] | 0.383 ± 0.081
N#Cc1cc(Oc2ccc(-n3cc(C(=O)C(=O)NC[C@H](O)CO)c4ccccc43)cc2)ccc1C(F)(F)F [Compound 68, (S)-2-(1-(4-(3-cyano-4-(trifluoromethyl)phenoxy)-phenyl)-1H-indol-3-yl)-N-(2,3-dihydroxypropyl)-2-oxoacetamide] | 0.572 ± 0.137
N#Cc1cc(Oc2ccc(-n3cc(C(=O)C(=O)O)c4cc([C@@H](O)CO)ccc43)cc2)ccc1C(F)(F)F [Compound 98, (R)-2-(1-(4-(3-cyano-4-(trifluoromethyl)phenoxy)-phenyl)-5-(1,2-dihydroxyethyl)-1H-indol-3-yl)-2-oxoacetic acid] | > 20
NC(=O)c1nn(-c2ccc(Oc3ccc(C(F)(F)F)cc3)cc2)c2ccc(F)cc12 [Compound 150, 5-fluoro-1-(4-(4-(trifluoromethyl)phenoxy)phenyl)-1H-indazole-3-carboxamide] | 6.97 ± 0.934
N#Cc1cc(Oc2ccc(-n3nc(C(N)=O)c4ccccc43)cc2)ccc1C(F)(F)F [Compound 152, 1-(4-(3-cyano-4-(trifluoromethyl)phenoxy)-phenyl)-1H-indazole-3-carboxamide] | 0.602 ± 0.053
(S)-3-(1-(4-(4-fluorophenoxy)phenyl)-1H-pyrrolo[2,3-c]pyridin-3-yl)propane-1,2-diol [Compound 170] | 1.38 ± 0.542

biological target: hNav1.7 (Homo sapiens (Human), UniProt Q15858); assay: Electrophysiology (EP) assay, whole-cell patch clamp; assay type: cell-based; details: hNav1.7 expressing HEK-293 cells, read-out: EP Nav1.7 Ki
Sequence (Q15858 other isoform, or with tags, fused parts or gaps): as above
Description: Cells: The hNav1.7 expressing HEK-293 cells were plated on 35 mm culture dishes pre-coated with poly-D-lysine in standard DMEM culture media (Mediatech, Inc., Herndon, Va.) and incubated in a 5% CO2 incubator at 37° C. Cultured cells were used approximately 12-48 hours after plating.
Electrophysiology: On the day of experimentation, the 35 mm dish was placed on the stage of an inverted microscope equipped with a perfusion system that continuously perfuses the culture dish with fresh recording media. A gravity driven superfusion system was used to apply test solutions directly to the cell under evaluation. This system consists of an array of glass pipette glass connected to a motorized horizontal translator. The outlet of the shooter was positioned approximately 100 μm from the cell of interest.
Gigaseals were formed and the whole-cell configuration was established in voltage clamp mode, and membrane currents generated by hNav1.7 were recorded in gap-free mode. […] Signals were sampled at 50 kHz and low pass filtered at 3 kHz.
The voltage clamp protocol to examine hNav1.7 currents was as follows. […] The amount of inhibition produced by the test compound was determined by comparing the current amplitude elicited by the test pulse in the absence and presence of the compound. […]

Compound | Ki [nM]
CN(C)CCc1cn(-c2ccc(Oc3ccccc3)cc2)c2ccc(C[C@H]3COC(=O)N3)cc12 [Compound 45, (S)-4-{[3-(2-(Dimethylamino)ethyl)-1-(4-phenoxyphenyl)-1H-indol-5-yl]methyl}oxazolidin-2-one] | 1310
N#Cc1cccc(Oc2ccc(-n3cc(C[C@H](N)CO)c4ccccc43)cc2)c1 [Compound 57, (S)-5-{4-[3-(2-Amino-3-hydroxypropyl)-1H-indol-1-yl]phenoxy}benzonitrile] | 50
